Our source for the IC50 values is patent US9321756B2, “Azole compounds as PIM inhibitors” (priority 2011, dated 2016).

For experiment [1], the target named is full length recombinant Pim-1 (Homo sapiens (Human), UniProt P11309). The experiment is described as follows: Pim enzyme assay (HTRF, phosphorylation of biotinylated-BAD (S112) peptide), Pim-1. Format: biochemical.
For experiment [2], the target named is full length recombinant Pim-2 (Homo sapiens (Human), UniProt Q9P1W9). The experiment is described as follows: Pim enzyme assay (HTRF, phosphorylation of biotinylated-BAD (S112) peptide), Pim-2. The conditions noted are these: read-out: Pim2_IC50. Format: biochemical.
full length recombinant Pim-2, sequence (Q9P1W9 whole entry): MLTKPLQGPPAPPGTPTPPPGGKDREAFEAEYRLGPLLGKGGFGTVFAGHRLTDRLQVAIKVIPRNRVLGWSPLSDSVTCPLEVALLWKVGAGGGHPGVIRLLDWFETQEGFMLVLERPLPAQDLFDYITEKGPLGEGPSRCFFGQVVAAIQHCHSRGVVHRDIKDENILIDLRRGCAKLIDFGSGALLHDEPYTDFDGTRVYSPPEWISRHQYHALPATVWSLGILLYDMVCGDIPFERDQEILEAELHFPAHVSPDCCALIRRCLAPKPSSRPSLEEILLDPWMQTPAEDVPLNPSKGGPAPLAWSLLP
Setting [3] is: Pim-1 enzyme assay, read-out: Pim_1_IC50.
Setting [4] is: HTRF, 10-point curve, high dose 1 uM, 2 h at RT, read-out: Pim_1_IC50.
Where [5] appears, read: HTRF, 10-point curve, high dose 1 uM, 45 min at RT.

Where two headings read alike, the source gives them in different places.

full length recombinant Pim-1, sequence (P11309 whole entry): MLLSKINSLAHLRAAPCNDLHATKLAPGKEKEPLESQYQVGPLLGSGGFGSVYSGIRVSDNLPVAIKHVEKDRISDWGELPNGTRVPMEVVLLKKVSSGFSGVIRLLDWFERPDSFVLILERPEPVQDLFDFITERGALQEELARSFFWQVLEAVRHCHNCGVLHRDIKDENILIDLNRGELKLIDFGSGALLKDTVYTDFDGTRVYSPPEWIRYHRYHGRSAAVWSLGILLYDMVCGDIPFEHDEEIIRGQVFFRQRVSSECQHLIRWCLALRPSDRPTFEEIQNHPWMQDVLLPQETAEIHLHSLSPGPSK

Take `CC(C)Oc1cccc(-c2c[nH]c3ccc(-c4nc(N)ns4)cc23)n1` [Example 63, 5-(3-(6-isopropoxypyridin-2-yl)-1H-indol-5-yl)-1,2,4-thiadiazol-3-amine]: the IC50 is 551 nM in experiment [1] (setting [3]) and 400 nM in experiment [2] (Pim-2 enzyme assay).
Consider `CC(C)Nc1nnc(-c2ccc3[nH]cc(-c4cncc(C(=O)NC5CC5)c4)c3c2)o1` [Example 299, N-cyclopropyl-5-(5-(5-((1-methylethyl)amino)-1,3,4-oxadiazol-2-yl)-1H-indol-3-yl)-3-pyridinecarboxamide], for which the IC50 in experiment [1] (setting [4]) was found to be 767 nM; in experiment [2] (setting [5]), 299 nM.
For the compound `CC(C)Oc1cccc(-c2c[nH]c3ccc(-c4noc(N)n4)cc23)n1` [Example 69, 3-(3-(6-isopropoxypyridin-2-yl)-1H-indol-5-yl)-1,2,4-oxadiazol-5-amine], the values for the IC50 in experiment [1] (setting [3]) and in experiment [2] (Pim-2 enzyme assay) were 241 nM and 668 nM, respectively.
With `CC(C)Nc1cncc(-c2c[nH]c3ccc(-c4nsc(N)n4)cc23)n1` [Example 66, 3-(3-(6-(isopropylamino)pyrazin-2-yl)-1H-indol-5-yl)-1,2,4-thiadiazol-5-amine], the IC50 came to 20.1 nM in experiment [1] (setting [3]) and 649 nM in experiment [2] (Pim-2 enzyme assay).
With `CC(C)Nc1cncc(-c2c[nH]c3ccc(-c4nc(N)no4)cc23)n1` [Example 67, 5-(3-(6-(isopropylamino)pyrazin-2-yl)-1H-indol-5-yl)-1,2,4-oxadiazol-3-amine], the IC50 in experiment [1] (setting [3]) came out at 5.79 nM; in experiment [2] it was 58.9 nM.
Turning to `c1ccc(Nc2nnc(-c3ccc4[nH]cc(-c5cncc(C6CC6)n5)c4c3)o2)cc1` [Example 40, 5-(3-(6-Cyclopropylpyrazin-2-yl)-1H-indol-5-yl)-N-phenyl-1,3,4-oxadiazol-2-amine], the IC50 in experiment [1] (setting [3]) came out at 105 nM; in experiment [2] (Pim-2 enzyme assay), 215 nM.
`CC(C)Nc1nnc(-c2ccc3[nH]cc(-c4nccc(OC5CCCN(C)C5)n4)c3c2)o1` (stereo not drawn) [Example 62, N-isopropyl-5-(3-(4-((1-methylpiperidin-3-yl)oxy)pyrimidin-2-yl)-1H-indol-5-yl)-1,3,4-oxadiazol-2-amine 2,2,2-trifluoroacetate]: the IC50 was 69.5 nM in experiment [1] (setting [3]) and 207 nM in experiment [2].
Regarding `COc1nc(-c2c[nH]c3ccc(-c4nnc(NC(C)C)o4)cc23)cc(=O)[nH]1` [Example 298, 2-methoxy-6-(5-(5-((1-methylethyl)amino)-1,3,4-oxadiazol-2-yl)-1H-indol-3-yl)-4(3H)-pyrimidinone], the values for the IC50 in experiment [1] (setting [4]) and in experiment [2] (setting [5]) were 15.9 nM and 24.4 nM, respectively.
The corresponding values for `CC(C)Nc1nnc(-c2ccc3[nH]cc(NC(=O)c4ccncc4)c3c2)o1` [Example 304, N-(5-(5-((1-methylethyl)amino)-1,3,4-oxadiazol-2-yl)-1H-indol-3-yl)-4-pyridinecarboxamide] are 70 nM and 115 nM.
On to `COc1nc(-c2c[nH]c3ccc(-c4nnc(NC(C)(C)C)o4)cc23)ncc1F` [Example 55, N-tert-butyl-5-(3-(5-fluoro-4-methoxypyrimidin-2-yl)-1H-indol-5-yl)-1,3,4-oxadiazol-2-amine 2,2,2-trifluoroacetate], for which the IC50 was 8.77 nM in experiment [1] and 28.7 nM in experiment [2] (Pim-2 enzyme assay).
Take `COc1ccnc(-c2c[nH]c3ccc(-c4nnc(NC(C)C)o4)cc23)n1` [Example 59, N-isopropyl-5-(3-(4-methoxypyrimidin-2-yl)-1H-indol-5-yl)-1,3,4-oxadiazol-2-amine]: the IC50 in experiment [1] (setting [3]) turned out to be 30.4 nM; in experiment [2] (Pim-2 enzyme assay) it was 16.7 nM.
In the case of `Fc1cccc(Nc2nnc(-c3ccc4[nH]cc(-c5nccc(C6CC6)n5)c4c3)o2)c1` [Example 269, 5-(3-(4-cyclopropyl-2-pyrimidinyl)-1H-indol-5-yl)-N-(3-fluorophenyl)-1,3,4-oxadiazol-2-amine], the IC50 in experiment [1] (setting [3]) came out at 364 nM; in experiment [2] (Pim-2 enzyme assay) it was 450 nM.
Turning to `CC(C)Nc1nnc(-c2ccc3[nH]cc(-c4cncc(C(=O)N(C)C)c4)c3c2)o1` [Example 296, N,N-dimethyl-5-(5-(5-((1-methylethyl)amino)-1,3,4-oxadiazol-2-yl)-1H-indol-3-yl)-3-pyridinecarboxamide], the IC50 in experiment [1] (setting [4]) and in experiment [2] (setting [5]) was greater than 1000 nM throughout.
`CCc1nc(-c2c[nH]c3ccc(-c4nnc(NC(C)(C)C)o4)cc23)ncc1F` [Example 57, N-tert-butyl-5-(3-(4-ethyl-5-fluoropyrimidin-2-yl)-1H-indol-5-yl)-1,3,4-oxadiazol-2-amine]: the IC50 in experiment [1] (setting [3]) is 5.79 nM; in experiment [2] (Pim-2 enzyme assay), 21 nM.
For the compound `CC(C)Nc1nnc(-c2ccc3[nH]cc(-c4ncc(F)c(C5CC5)n4)c3c2)o1` [Example 262, 5-(3-(4-cyclopropyl-5-fluoro-2-pyrimidinyl)-1H-indol-5-yl)-N-(1-methylethyl)-1,3,4-oxadiazol-2-amine], the IC50 in experiment [1] (setting [3]) was found to be 2.53 nM; in experiment [2] (Pim-2 enzyme assay), 2.77 nM.
Regarding `CS(=O)(=O)c1ccc(-c2c[nH]c3ccc(-c4nnc(N)o4)cc23)nc1` [Example 284, 5-(3-(5-(methylsulfonyl)-2-pyridinyl)-1H-indol-5-yl)-1,3,4-oxadiazol-2-amine 2,2,2-trifluoroacetate], the IC50 turned out to be 515 nM in experiment [1] (setting [4]) and 555 nM in experiment [2].
Consider `CC(C)Cc1nnc(-c2ccc3[nH]cc(-c4cncc(C5CC5)n4)c3c2)o1` [Example 265, 3-(6-cyclopropyl-2-pyrazinyl)-5-(5-(2-methylpropyl)-1,3,4-oxadiazol-2-yl)-1H-indole], for which the values for the IC50 in experiment [1] and in experiment [2] (Pim-2 enzyme assay) were 28.6 nM and 51 nM, respectively.
In the case of `CC(C)Nc1nnc(-c2ccc3[nH]cc(-c4nccc(N5CCN(C)C(=O)C5)n4)c3c2)o1` [Example 61, 4-(2-(5-(5-(isopropylamino)-1,3,4-oxadiazol-2-yl)-1H-indol-3-yl)pyrimidin-4-yl)-1-methylpiperazin-2-one], the IC50 was found to be 45.9 nM in experiment [1] (setting [3]) and 46.8 nM in experiment [2] (Pim-2 enzyme assay).
Take `CC(C)Nc1nnc(-c2ccc3[nH]cc(-c4cccc(C(=O)N(C)C)n4)c3c2)o1` [Example 292, N,N-dimethyl-6-(5-(5-((1-methylethyl)amino)-1,3,4-oxadiazol-2-yl)-1H-indol-3-yl)-2-pyridinecarboxamide]: the IC50 in experiment [1] (setting [4]) is 496 nM; in experiment [2] (setting [5]), 541 nM.
Regarding `CC(C)Nc1nnc(-c2ccc3[nH]cc(-c4nccc(OC(C)C)n4)c3c2)o1` [Example 60, 5-(3-(4-isopropoxypyrimidin-2-yl)-1H-indol-5-yl)-N-isopropyl-1,3,4-oxadiazol-2-amine], the IC50 turned out to be 20.1 nM in experiment [1] (setting [3]) and 13.5 nM in experiment [2] (Pim-2 enzyme assay).
In the same order, the values of `CCN(C)c1cnc(-c2c[nH]c3ccc(-c4nnc(N)s4)cc23)cn1` [Example 188, 5-(5-(5-amino-1,3,4-thiadiazol-2-yl)-1H-indol-3-yl)-N-ethyl-N-methyl-2-pyrazinamine] are 398 nM and 1220 nM.
Consider `CC(C)Nc1nnc(-c2ccc3[nH]cc(-c4nccc(C(N)=O)n4)c3c2)o1` [Example 261, 2-(5-(5-((1-methylethyl)amino)-1,3,4-oxadiazol-2-yl)-1H-indol-3-yl)-4-pyrimidinecarboxamide], for which the IC50 was 105 nM in experiment [1] and 70.8 nM in experiment [2] (Pim-2 enzyme assay).
`Cc1ccnc(-c2c[nH]c3ccc(-c4nnc(NC(C)(C)C)o4)cc23)n1` [Example 270, N-tert-butyl-5-(3-(4-methyl-2-pyrimidinyl)-1H-indol-5-yl)-1,3,4-oxadiazol-2-amine]: the IC50 in experiment [1] (setting [3]) came out at 8.77 nM; in experiment [2] (Pim-2 enzyme assay) it was 34.8 nM.
Turning to `CC(C)(C)Nc1nnc(-c2ccc3[nH]cc(-c4ncc(C(N)=O)s4)c3c2)o1` [Example 277, 2-(5-(5-(tert-butylamino)-1,3,4-oxadiazol-2-yl)-1H-indol-3-yl)-1,3-thiazole-5-carboxamide], the IC50 in experiment [1] (setting [4]) was 58.2 nM; in experiment [2] (setting [5]), 393 nM.
With `CC(C)Nc1nnc(-c2ccc3[nH]cc(-c4nc(C5CC5)n[nH]4)c3c2)o1` [Example 263, 5-(3-(3-cyclopropyl-1H-1,2,4-triazol-5-yl)-1H-indol-5-yl)-N-(1-methylethyl)-1,3,4-oxadiazol-2-amine], the IC50 in experiment [1] (setting [3]) turned out to be 241 nM; in experiment [2] (Pim-2 enzyme assay), 383 nM.
In the same order, the values of `COc1nc(-c2c[nH]c3ccc(-c4nnc(NC(C)C)o4)cc23)nc(C)c1F` [Example 260, 5-(3-(5-fluoro-4-methoxy-6-methyl-2-pyrimidinyl)-1H-indol-5-yl)-N-(1-methylethyl)-1,3,4-oxadiazol-2-amine] are 159 nM and 106 nM.
The corresponding values for `CC(C)(C)Nc1nnc(-c2ccc3[nH]cc(-c4nccc(C(N)=O)n4)c3c2)o1` [Example 273, 2-(5-(5-(tert-butylamino)-1,3-4-oxadiazol-2-yl)-1H-indol-3-yl)-4-pyrimidinecarboxamide] are 11.8 nM and 28.5 nM.
The corresponding values for `CC(C)Nc1cncc(-c2c[nH]c3ccc(-c4noc(N)n4)cc23)n1` [Example 70, 3-(3-(6-(isopropylamino)pyrazin-2-yl)-1H-indol-5-yl)-1,2,4-oxadiazol-5-amine] are 30.4 nM and 362 nM.
Turning to `COc1nccc(-c2c[nH]c3ccc(-c4nnc(NC(C)C)o4)cc23)n1` [Example 297, 5-(3-(2-methoxy-4-pyrimidinyl)-1H-indol-5-yl)-N-(1-methylethyl)-1,3,4-oxadiazol-2-amine], the IC50 in experiment [1] (setting [4]) stood at 39.2 nM; in experiment [2] (setting [5]) it was 73.8 nM.
As to `Nc1nnc(-c2ccc3[nH]cc(-c4cc(C(F)(F)F)ncn4)c3c2)o1` [Example 95, 5-(3-(6-(trifluoromethyl)-4-pyrimidinyl)-1H-indol-5-yl)-1,3,4-oxadiazol-2-amine], the IC50 in experiment [1] (setting [3]) was greater than 1000 nM; in experiment [2] (Pim-2 enzyme assay) it was 838 nM.
